US4914086A, “Method for treating African human and veterinary trypanosomiases” (priority 1987, dated 1990)
“Also recorded” adds a separate entry of the source.

Legend:
[1] = test system: T. b. brucei EATRO 110; experiment: Drug screen, acute EATRO 110 mouse infection (Tables 1, 3); assay type: in vivo, Trypanosoma brucei brucei (in Swiss-Webster mice)
Description: (§1) T. b. brucei EATRO 110 isolate was maintained as described (Bacchi, C. J., H. C. Nathan, S. H. Hutner, P. P. McCann and A. Sjoerdsma; Polyamine metabolism: a potential chemotherapeutic target in trypanosomes. Science 210: 332-334, 1980). It produces an acute, rapidly fatal parasitemia which is lethal to mice 3-5 days after inoculation. Two T. B. brucei strains, TREU 667 and LUMP 1001 developed by Jennings and coworkers (Jennings, F. W., D. D. Whitelaw and G. M. Urquhart; The relationship between duration of infection with Trypanosoma brucei in mice and the efficacy of chemotherapy. Parasitology 75: 143-153, 1977/Jennings, F. W. and G. D. Gray; Relapsed parasitemia following chemotherapy of chronic T. brucei infections in mice and its relation to cerebral trypanosomes; Contr. Microbiol. Immunol. 7 147-154, 1983) were used as CNS models. Both produce infections which are refractory to Berenil® (diminazene aceturate) and develop within 21 days after inoculation. They are not usually fatal until >40 days after inoculation. LUMP 1001 causes a more virulent CNS infection than TREU 667, and is regarded as more difficult to cure (Jennings, F. W. and G. D. Gray. Relapsed parasitemia following chemotherapy of chronic T. brucei infections in mice and its relation to cerebral trypanosomes. Contr. Microbiol. Immunol. 7 147-154, 1983).
Swiss-Webster (25-30 g) mice were used throughout. In the EATRO 110 model, groups of 100 mice were infected (10^5 trypanosomes/mouse) and the infection was allowed to develop 24 hours before commencing therapy. Animals were divided into groups of 5 before treatment. Cured animals survived >30 days beyond deaths of controls. All compounds were administered by i.p. injection.
Other methods as in Table 1.

[2] = test system: T. b. brucei LUMP 1001; experiment: CNS model, T. b. brucei LUMP 1001 infection in mice (Table 5); assay type: in vivo, Trypanosoma brucei brucei (in Swiss-Webster mice); settings: for efficacy in CNS model in words: LUMP 1001
Description: as §1
The models for […] nervous system infections used TREU 667 and LUMP 1001 strains which were stored frozen and passaged once in rats before infection of mice. Maintenance and use of these screens were as described (Clarkson, A. B. Jr., C. J. Bacchi, G. H. Mellon, H. C. Nathan, P. P. McCann and A. Sjoerdsma. Efficacy of DFMO+blemoycin in a mouse model of central nervous system African trypanosomiasis. Proc. Natl. Acad. Sci. USA. 80: 5729-5733, 1983/Clarkson, A. B. Jr., E. J. Biene, C. J. Bacchi, P. P. McCann, S. H. Hutner and A. Sjoerdsma. New drug combination for experimental late stage African trypanosomiasis: DFMO with suramin. Am. J. Trop. Med. Hyg. 33: 1073-1077, 1984/Dube, D. K., G. Mpimbaza, A. C. Allison, E. Lederer and L. Rovis. Antitrypanosomal activity of sinefungin, Am. J. Trop. Med. Hyg. 32: 31-33, 1983/Fish, W. R., J. J. Marr, R. L. Berens, D. L. Looker, D. J. Nelson, S. LaFon and A. E. Balber. Inosine analogs as chemotherapeutic agents for African trypanosomes: metabolism in trypanosomes and efficacy in tissue culture. Anti-microb. Ag. Chemother. 27: 33-36, 1985/Clazer, R. I., and L. S. Lloyd. Effects of 8-azaadenosine and formycin on cell lethality and the synthesis and methylation of nucleic acids in human colon carcinoma cells in culture. Biochem. Pharmacol. 31: 3207-3214, 1982/Bacchi, C. J., H. C. Nathan, A. B. Clarkson, Jr., E. J. Bienen, A. J. Bitonti, P. P. McCann and A. Sjoerdsma. Activity of the ornithine decarboxylase inhibitors DL-α-difluoromethylornithine and monofluormethyldehydroornithine methylester alone and in combination with suramin against Trypanosoma brucei brucei central nervous system models, Am. J. Trop. Med. Hyg. (in press)). Briefly, groups of 100-120 mice were infected and the infections allowed to develop until day 21, when the animals were separated into groups of 10 and therapy commenced. Controls were treated with Berenil (40 mg/kg) on day 21. […] Parasitemia was followed by examining tail vein blood smears once weekly. Animals which had relapsed were removed from cages.

[3] = Table 1, 5 mg/kg i.p. (9-DINO, sinefungin once daily for 3 days)
[4] = Table 1, 10 mg/kg i.p. (9-DINO, sinefungin once daily for 3 days)
[5] = Table 1, 25 mg/kg i.p. (9-DINO, sinefungin once daily for 3 days)
[6] = Table 1, 50 mg/kg i.p. (9-DINO, sinefungin once daily for 3 days)
[7] = Table 1, 100 mg/kg i.p. (9-DINO, sinefungin once daily for 3 days)
[8] = Table 1, 200 mg/kg i.p. once daily for 3 days
[9] = Table 1, 400 mg/kg i.p. once daily for 3 days
[10] = Table 3, 5 mg/kg i.p. once daily for 3 days
[11] = Table 3, 10 mg/kg i.p. once daily for 3 days
[12] = Table 3, 25 mg/kg i.p. once daily for 3 days
[13] = Table 1, 0.5 mg/kg i.p. once daily for 3 days
[14] = Table 1, 1 mg/kg i.p. once daily for 3 days
[15] = Table 1, 2.5 mg/kg i.p. (9-DINO, sinefungin once daily for 3 days)
[16] = Table 3, 0.5 mg/kg i.p. once daily for 3 days
[17] = Table 3, 1.0 mg/kg i.p. once daily for 3 days

SMILES: O=c1[nH]cnc2c([C@@H]3O[C@H](CO)[C@@H](O)[C@H]3O)c[nH]c12 [9-DINO, 7-beta-D-ribofuranosyl-4-oxo-3H, 5H-pyrrolo (3,2-d) pyrimidine]
- cure rate ([1]; 50-100 mg/kg, EATRO 110): 100%
- curative / active dose range ([1]; EATRO 110, text): 25 to 200 mg/kg
- # Cured/Total [1, 3]: 0/5
- % Cured [1, 3]: 0%
- # Cured/Total [1, 4]: 2/30
- % Cured [1, 4]: 7%
- # Cured/Total [1, 5]: 15/20
- % Cured [1, 5]: 50%
- # Cured/Total [1, 6]: 4/5
- % Cured [1, 6]: 80%
- # Cured/Total [1, 7]: 5/5
- % Cured [1, 7]: 100%
- # Cured/Total [1, 8]: 5/5
- % Cured [1, 8]: 100%
- # Cured/Total [1, 9]: 3/5
- % Cured [1, 9]: 60%
- # Cured/Total [1, 10]: 0/5
- % Cured [1, 10]: 0%
- # Cured/Total [1, 11]: 2/30
- % Cured [1, 11]: 7%
- # Cured/Total [1, 12]: 15/20
- % Cured [1, 12]: 75%
- activity in the acute (short term) EATRO 110 model, in words ([1]; listed as 9-deazainosine): greatest activity; also recorded: most active analog of the two
- activity in the acute (short term) EATRO 110 model, in words ([1]; text summary): greatest activity; also recorded: highly effective; also recorded: active against acute models; also recorded: more effective than sinefungin, allopurinol and allopurinol riboside
- activity in the acute (short term) EATRO 110 model, in words ([1]; text summary, listed as 9DINO): active against an acute infection
- # Cured/Total ([2]; 50 mg/kg i.p., 7 days): 0/10
- % Cured ([2]; 50 mg/kg i.p., 7 days): 0%
- Avg. Day of Relapse (Range) ([2]; 50 mg/kg i.p., 7 days): 36 (35-44) Day
- # Cured/Total ([2]; 100 mg/kg i.p., 7 days): 0/9
- % Cured ([2]; 100 mg/kg i.p., 7 days): 0%
- Avg. Day of Relapse (Range) ([2]; 100 mg/kg i.p., 7 days): 38 (35-44) Day
- # Cured/Total ([2]; 250 mg/kg i.p., 7 days): 0/10
- % Cured ([2]; 250 mg/kg i.p., 7 days): 0%
- Avg. Day of Relapse (Range) ([2]; 250 mg/kg i.p., 7 days): 49 (35-63) Day
- efficacy in CNS model in words [2]: did not cure CNS infections

SMILES: Nc1ncnc2c1ncn2[C@@H]1O[C@H](C[C@@H](N)CC[C@H](N)C(=O)O)[C@@H](O)[C@H]1O [Sinefungin, 6,9-Diamino-1-(6-amino-9H-purin-9-yl)-1,5,6,7,8,9-hexadeoxy-beta-D-ribo-decofuranuronic acid]
- % active ([1]; 25 mg/kg, single dose): 80%
- # Cured/Total [1, 13]: 0/15
- % Cured [1, 13]: 0%
- # Cured/Total [1, 14]: 0/20
- % Cured [1, 14]: 0%
- # Cured/Total [1, 15]: 0/5
- % Cured [1, 15]: 0%
- # Cured/Total [1, 3]: 9/15
- % Cured [1, 3]: 60%
- # Cured/Total [1, 4]: 8/15
- % Cured [1, 4]: 53%
- # Cured/Total [1, 5]: 4/5
- % Cured [1, 5]: 80%
- # Cured/Total [1, 16]: 0/15
- % Cured [1, 16]: 0%
- # Cured/Total [1, 17]: 0/20
- % Cured [1, 17]: 0%
- # Cured/Total [1, 10]: 9/15
- % Cured [1, 10]: 60%
- # Cured/Total [1, 11]: 8/15
- % Cured [1, 11]: 53%
- # Cured/Total [1, 12]: 4/5
- % Cured [1, 12]: 80%
- % effective ([1]; single doses of 5 or 10 mg/kg): ~ 50%
- activity in the acute (short term) EATRO 110 model, in words ([1]; text summary): less active than 9-DINO and Formycin B
- # Cured/Total ([2]; 2.5 mg/kg i.p., 3 days): 0/10
- % Cured ([2]; 2.5 mg/kg i.p., 3 days): 0%
- Avg. Day of Relapse (Range) ([2]; 2.5 mg/kg i.p., 3 days): 35 days
- # Cured/Total ([2]; 5 mg/kg i.p., 3 days): 0/10
- % Cured ([2]; 5 mg/kg i.p., 3 days): 0%
- Avg. Day of Relapse (Range) ([2]; 5 mg/kg i.p., 3 days): 35 days
- # Cured/Total ([2]; 10 mg/kg i.p., 3 days): 0/10
- % Cured ([2]; 10 mg/kg i.p., 3 days): 0%
- Avg. Day of Relapse (Range) ([2]; 10 mg/kg i.p., 3 days): 39 (35-71) Day
- efficacy in CNS model in words [2]: did not produce complete cures
